Assay results reported in PubChem BioAssay (NCI).
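96-well plates; 48 h exposure; 5 concentrations. Endpoints by linear interpolation between flanking doses. Not reached: highest tested concentration assigned. Abbreviation: GI50, concentration required for 50% inhibition of growth. TGI denotes the concentration required for complete inhibition of growth.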

Assays:
Assay in all cases: growth of human tumour cells (NCI), 48 h
786-0 renal = system: 786-0 renal
A498 renal = system: A498 renal
A549 NSCLC = system: A549 NSCLC
ACHN renal = system: ACHN renal
BT-549 breast = system: BT-549 breast
CAKI-1 renal = system: CAKI-1 renal
CCRF-CEM leukemia = system: CCRF-CEM leukemia
COLO 205 colon = system: COLO 205 colon
DU-145 prostate = system: DU-145 prostate
EKVX NSCLC = system: EKVX NSCLC
HCC-2998 colon = system: HCC-2998 colon
HCT-116 colon = system: HCT-116 colon
HCT-15 colon = system: HCT-15 colon
HL-60(TB) leukemia = system: HL-60(TB) leukemia
HOP-62 NSCLC = system: HOP-62 NSCLC
HOP-92 NSCLC = system: HOP-92 NSCLC
HS 578T breast = system: HS 578T breast
HT29 colon = system: HT29 colon
IGROV1 ovarian = system: IGROV1 ovarian
K-562 leukemia = system: K-562 leukemia
KM12 colon = system: KM12 colon
LOX IMVI melanoma = system: LOX IMVI melanoma
M14 melanoma = system: M14 melanoma
MALME-3M melanoma = system: MALME-3M melanoma
MCF7 breast = system: MCF7 breast
MDA-MB-231 breast = system: MDA-MB-231 breast
MDA-MB-435 = system: MDA-MB-435
MOLT-4 leukemia = system: MOLT-4 leukemia
NCI-H226 lung = system: NCI-H226 lung
NCI-H23 lung = system: NCI-H23 lung
NCI-H460 lung = system: NCI-H460 lung
NCI-H522 lung = system: NCI-H522 lung
NCI/ADR-RES ovarian = system: NCI/ADR-RES ovarian
OVCAR-3 ovarian = system: OVCAR-3 ovarian
OVCAR-4 ovarian = system: OVCAR-4 ovarian
OVCAR-5 ovarian = system: OVCAR-5 ovarian
OVCAR-8 ovarian = system: OVCAR-8 ovarian
PC-3 prostate = system: PC-3 prostate
RPMI-8226 leukemia = system: RPMI-8226 leukemia
RXF 393 renal = system: RXF 393 renal
SF-268 CNS = system: SF-268 CNS
SF-295 CNS = system: SF-295 CNS
SF-539 CNS = system: SF-539 CNS
SK-MEL-2 melanoma = system: SK-MEL-2 melanoma
SK-MEL-5 melanoma = system: SK-MEL-5 melanoma
SK-OV-3 ovarian = system: SK-OV-3 ovarian
SN12C renal = system: SN12C renal
SNB-19 CNS = system: SNB-19 CNS
SNB-75 CNS = system: SNB-75 CNS
SR leukemia = system: SR leukemia
SW-620 colon = system: SW-620 colon
T-47D breast = system: T-47D breast
TK-10 renal = system: TK-10 renal
U251 CNS = system: U251 CNS
UACC-257 melanoma = system: UACC-257 melanoma
UACC-62 melanoma = system: UACC-62 melanoma
UO-31 renal = system: UO-31 renal

CCCCCCCCn1ccc2cc(NC(=O)Cn3cc(CN4CCN(CC)CC4)nn3)ccc21
GI50 (786-0 renal): 1.61 µM
TGI (786-0 renal): 3.11 µM
GI50 (A498 renal): 2.07 µM
TGI (A498 renal): 4.97 µM
GI50 (A549 NSCLC): 1.99 µM
TGI (A549 NSCLC): 4.1 µM
GI50 (ACHN renal): 1.82 µM
TGI (ACHN renal): 3.47 µM
GI50 (BT-549 breast): 1.76 µM
TGI (BT-549 breast): 4.19 µM
GI50 (CAKI-1 renal): 1.8 µM
TGI (CAKI-1 renal): 3.43 µM
GI50 (CCRF-CEM leukemia): 3.06 µM
TGI (CCRF-CEM leukemia): 10.3 µM
GI50 (COLO 205 colon): 1.8 µM
TGI (COLO 205 colon): 3.47 µM
GI50 (DU-145 prostate): 3.4 µM
TGI (DU-145 prostate): 11.4 µM
GI50 (EKVX NSCLC): 1.81 µM
TGI (EKVX NSCLC): 4.65 µM
GI50 (HCC-2998 colon): 1.84 µM
TGI (HCC-2998 colon): 3.43 µM
GI50 (HCT-116 colon): 1.7 µM
TGI (HCT-116 colon): 3.51 µM
GI50 (HCT-15 colon): 1.78 µM
TGI (HCT-15 colon): 3.79 µM
GI50 (HL-60(TB) leukemia): 1.97 µM
TGI (HL-60(TB) leukemia): 4.14 µM
GI50 (HOP-62 NSCLC): 1.7 µM
TGI (HOP-62 NSCLC): 3.33 µM
GI50 (HOP-92 NSCLC): 1.36 µM
TGI (HOP-92 NSCLC): 2.9 µM
GI50 (HS 578T breast): 2.14 µM
TGI (HS 578T breast): 5.54 µM
GI50 (HT29 colon): 2 µM
TGI (HT29 colon): 4.39 µM
GI50 (IGROV1 ovarian): 2.17 µM
TGI (IGROV1 ovarian): 5.98 µM
GI50 (K-562 leukemia): 2.05 µM
TGI (K-562 leukemia): 4.34 µM
GI50 (KM12 colon): 2.08 µM
TGI (KM12 colon): 4.74 µM
GI50 (LOX IMVI melanoma): 1.72 µM
TGI (LOX IMVI melanoma): 3.2 µM
GI50 (M14 melanoma): 1.9 µM
TGI (M14 melanoma): 3.67 µM
GI50 (MALME-3M melanoma): 1.68 µM
TGI (MALME-3M melanoma): 3.17 µM
GI50 (MCF7 breast): 1.82 µM
TGI (MCF7 breast): 3.73 µM
GI50 (MDA-MB-231 breast): 1.75 µM
TGI (MDA-MB-231 breast): 3.38 µM
GI50 (MDA-MB-435): 1.78 µM
TGI (MDA-MB-435): 3.32 µM
GI50 (MOLT-4 leukemia): 2.58 µM
TGI (MOLT-4 leukemia): 6.68 µM
GI50 (NCI-H226 lung): 1.59 µM
TGI (NCI-H226 lung): 3.1 µM
GI50 (NCI-H23 lung): 1.96 µM
TGI (NCI-H23 lung): 4.14 µM
GI50 (NCI-H460 lung): 1.94 µM
TGI (NCI-H460 lung): 3.68 µM
GI50 (NCI-H522 lung): 1.89 µM
TGI (NCI-H522 lung): 3.84 µM
GI50 (NCI/ADR-RES ovarian): 12.2 µM
TGI (NCI/ADR-RES ovarian): 27.7 µM
GI50 (OVCAR-3 ovarian): 2.7 µM
TGI (OVCAR-3 ovarian): 8.25 µM
GI50 (OVCAR-4 ovarian): 6.46 µM
TGI (OVCAR-4 ovarian): 19.2 µM
GI50 (OVCAR-5 ovarian): 2.36 µM
TGI (OVCAR-5 ovarian): 6.39 µM
GI50 (OVCAR-8 ovarian): 2.33 µM
TGI (OVCAR-8 ovarian): 5.83 µM
GI50 (PC-3 prostate): 2.06 µM
TGI (PC-3 prostate): 5.03 µM
GI50 (RPMI-8226 leukemia): 2.28 µM
TGI (RPMI-8226 leukemia): 5.39 µM
GI50 (RXF 393 renal): 1.48 µM
TGI (RXF 393 renal): 3.04 µM
GI50 (SF-268 CNS): 1.9 µM
TGI (SF-268 CNS): 4.01 µM
GI50 (SF-295 CNS): 1.87 µM
TGI (SF-295 CNS): 3.7 µM
GI50 (SF-539 CNS): 1.68 µM
TGI (SF-539 CNS): 3.17 µM
GI50 (SK-MEL-2 melanoma): 2.01 µM
TGI (SK-MEL-2 melanoma): 3.89 µM
GI50 (SK-MEL-5 melanoma): 1.75 µM
TGI (SK-MEL-5 melanoma): 3.14 µM
GI50 (SK-OV-3 ovarian): 1.78 µM
TGI (SK-OV-3 ovarian): 3.49 µM
GI50 (SN12C renal): 1.82 µM
TGI (SN12C renal): 3.76 µM
GI50 (SNB-19 CNS): 1.9 µM
TGI (SNB-19 CNS): 3.77 µM
GI50 (SNB-75 CNS): 1.52 µM
TGI (SNB-75 CNS): 2.98 µM
GI50 (SR leukemia): 3.35 µM
TGI (SR leukemia): 11.8 µM
GI50 (SW-620 colon): 1.9 µM
TGI (SW-620 colon): 3.62 µM
GI50 (T-47D breast): 1.81 µM
TGI (T-47D breast): 3.56 µM
GI50 (TK-10 renal): 1.77 µM
TGI (TK-10 renal): 3.36 µM
GI50 (U251 CNS): 1.77 µM
TGI (U251 CNS): 3.26 µM
GI50 (UACC-257 melanoma): 1.83 µM
TGI (UACC-257 melanoma): 3.65 µM
GI50 (UACC-62 melanoma): 1.91 µM
TGI (UACC-62 melanoma): 3.5 µM
GI50 (UO-31 renal): 1.46 µM
TGI (UO-31 renal): 2.79 µM
